Results: patent publication EP1169036B1, “ANTI-VIRAL USES OF LEFLUNOMIDE PRODUCTS” (priority 1998, dated 1999)
Like-named read-outs stand apart in the source and are kept apart here.

Assays:
Measles Virus [1] = assay: microbe, parasite or virus in culture; format: cell-based; conditions: Measles morbillivirus, CV-1; read-out: CPE Inhibition test EC50
[2] = test system: Parainfluenza Type 3 Virus; assay: organism not typed; format: cell-based; conditions: MA104; read-out: CPE Inhibition test EC50
[3] = test system: Respiratory Syncytial Virus A; assay: microbe, parasite or virus in culture; format: cell-based; conditions: human respiratory syncytial virus, MA104; read-out: CPE Inhibition test EC50
Measles Virus [4] = assay: microbe, parasite or virus in culture; format: cell-based; conditions: Measles morbillivirus, CV-1; read-out: Neutral Red Uptake test EC50
[5] = test system: Parainfluenza Type 3 Virus; assay: organism not typed; format: cell-based; conditions: MA104; read-out: Neutral Red Uptake test EC50
[6] = test system: Respiratory Syncytial Virus A; assay: microbe, parasite or virus in culture; format: cell-based; conditions: human respiratory syncytial virus, MA104; read-out: Neutral Red Uptake test EC50
[7] = test system: Madin Darby canine kidney (MDCK) cells; assay: cells; format: cell-based; conditions: Canis lupus familiaris, cytotoxic concentration, positive control drug = ribavirin, read-out: CPE Inhibition test IC50
[8] = test system: African green monkey kidney (CV-1) cells; assay: cells; format: cell-based; conditions: Chlorocebus sabaeus, read-out: CPE Inhibition test IC50
[9] = test system: African green monkey kidney (MA-104) cells; assay: cells; format: cell-based; conditions: Chlorocebus sabaeus, MA104, cytotoxic concentration, positive control drug = ribavirin, read-out: CPE Inhibition test IC50
[10] = test system: Madin Darby canine kidney (MDCK) cells; assay: cells; format: cell-based; conditions: Canis lupus familiaris, cytotoxic concentration, positive control drug = ribavirin, read-out: Neutral Red Uptake test IC50
[11] = test system: African green monkey kidney (CV-1) cells; assay: cells; format: cell-based; conditions: Chlorocebus sabaeus, read-out: Neutral Red Uptake test IC50
[12] = test system: African green monkey kidney (MA-104) cells; assay: Cytotoxicity, neutral red uptake by toxicity control cells; format: cell-based; conditions: Chlorocebus sabaeus, read-out: Neutral Red Uptake test IC50
[13] = in vivo; cited from earlier work
CMV strain VHL/E = assay: Immunohistochemical staining of CMV proteins in infected HUVEC; format: cell-based
Procedure: Experiments were conducted to determine at which point in the viral replication cycle leflunomide exerts its inhibitory effects. Immediately upon penetration of the host cell, CMV lower matrix protein pp65, a component of the viral tegument, translocates to the cell nucleus. Although the nuclear function of pp65 remains to be resolved, another tegument protein (pp71) that migrates in a similar manner acts in concert with cellular proteins to promote rapid transcription of immediate early (IE) viral genes. IE gene products are primarily regulatory, activating early gene transcription, whose products are essential for viral DNA replication. Activation of late genes, which code primarily for structural protein components of the virion, occurs late in the replicative cycle and is dependent upon viral DNA replication.
To localize potential A771726-induced lesions in this temporal series of events, a cross section of CMV proteins in infected cells was first visualized by immunohistochemical staining as follows. CMV strain VHL/E-inoculated HUVEC monolayers incubated in the presence or absence of 200 µM A771726 or 1 mM phosphonoformate (PFA) (as a positive control for late antigen inhibition) were fixed at various intervals and stained with mAb specific for pp65, 72 kD IE1, or late structural glycoprotein B (gB). […]

CMV DNA = format: cell-based; conditions: CMV-infected HFF (100 µM A771726) , identical in HUVEC (200 µM); 1 mM PFA; 48 hours
CMV DNA polymerase = biological target: T1, CMV DNA polymerase (Human cytomegalovirus, UniProt P08546); format: biochemical; conditions: extracts of VHL/E-infected HUVEC or P8-infected HFF; PFA result at 1 mM
T1 construct: Crude protein extracts prepared from CMV-infected HUVEC or HFF; endogenous in cells; host or cells: HUVEC infected with CMV VHL/E or BUR/E, and HFF infected with CMV P8; Cells were sonicated and the clarified crude lysate was used

[14] = test system: CMV strain VHL/E or strain BUR/E; format: cell-based; conditions: HUVEC, A771726 200 µM, CsA 100 ng/ml, FK 506 1 ng/ml
Adenovirus Type 1 [15] = assay: microbe, parasite or virus in culture; format: cell-based; conditions: Human mastadenovirus C, A549; read-out: CPE Inhibition test EC50
Rhinovirus Type 5 [16] = assay: microbe, parasite or virus in culture; format: cell-based; conditions: Enterovirus; read-out: CPE Inhibition test EC50
Adenovirus Type 1 [17] = assay: microbe, parasite or virus in culture; format: cell-based; conditions: Human mastadenovirus C, A549; read-out: Neutral Red Uptake test EC50
Rhinovirus Type 5 [18] = assay: Neutral red uptake test; format: cell-based; conditions: Enterovirus, read-out: Neutral Red Uptake test EC50
Text: Environment. Microbiol, 31:35-38, 1976).

[19] = test system: human lung carcinoma (A549) cells; assay: cells; format: cell-based; conditions: read-out: CPE Inhibition test IC50
uninfected cells [20] = assay: Cytotoxicity, microscopic reading of uninfected cells in the CPE inhibition test (rhinovirus host cells, not named); format: cell-based
Procedure: (§1) Cytotoxicity of each test compound is also evaluated as follows. In the initial CPE inhibition tests, two wells of uninfected cells treated with each concentration of test compound are run in parallel with the infected, treated wells. When the CPE is determined microscopically, the toxicity control cells are also examined microscopically for any changes in cell appearance compared to normal uninfected, untreated control cells. Changes, which may manifest as enlargement, granularity, ragged edges, filmy appearance, rounding, detachment from the surface of the well, or other changes, are given a designation of T (100% toxic), PVH (partially toxic-very heavy-80%), PH (partially toxic-heavy-60%), P (partially toxic-40%), PS (partially toxic-slight-20%) or 0 (no toxicity-0%) in accordance with the degree of cytotoxicity observed. […] A neutral red IC50 is also determined based on uptake of neutral red dye by the toxicity control cells.

uninfected cells [21] = assay: Cytotoxicity, neutral red uptake by toxicity control cells (rhinovirus host cells, not named); format: cell-based; conditions: read-out: Neutral Red Uptake test IC50
Procedure: as §1

[22] = test system: rat CMV (RCMV RA67, Maastricht strain); assay: Viral load in nude rats inoculated with rat CMV, plaque assay of tissue homogenates; format: in vivo, immunodeficient nude rats; conditions: leflunomide 15 mg/kg/day for 14 days, 14 days post-inoculation
hepatitis C = assay: Clinical treatment of a patient with chronic hepatitis C, viral load by quantitative PCR; format: in vivo, human
Procedure: The patient is a person who received a liver transplant in January 1990 for hepatitis C. Over the following nine years they developed indolent hepatitis C with mildly elevated liver enzymes. Because of slowly progressive kidney impairment, presumably related to a combination of chronic hepatitis C and long term cyclosporine A treatment, they were started on leflunomide treatment. […] After an initial leflunomide loading dose of 300 mg daily for two days, a maintenance dose of 50 mg daily was started.
As the new treatment regimen was implemented, their kidney function improved; their serum creatinine fell from 3.6 mg/dl to 2.2 mg/dl and their BUN fell from 94 mg/dl to 55 mg/dl. Just before leflunomide was begun their hepatitis C viral load in peripheral blood was 3,120,000 copies, measured by quantitative PCR (Quest Diagnostics). After six weeks of therapy with leflunomide, their hepatitis C viral load had fallen to 1,480,000 copies, measured by the same PCR methodology.

[23] = run with Respiratory Syncytial Virus A
[24] = MA104, cytotoxic concentration, run with Parainfluenza Type 3 Virus, positive control drug = ribavirin

T1 sequence (P16790 whole entry): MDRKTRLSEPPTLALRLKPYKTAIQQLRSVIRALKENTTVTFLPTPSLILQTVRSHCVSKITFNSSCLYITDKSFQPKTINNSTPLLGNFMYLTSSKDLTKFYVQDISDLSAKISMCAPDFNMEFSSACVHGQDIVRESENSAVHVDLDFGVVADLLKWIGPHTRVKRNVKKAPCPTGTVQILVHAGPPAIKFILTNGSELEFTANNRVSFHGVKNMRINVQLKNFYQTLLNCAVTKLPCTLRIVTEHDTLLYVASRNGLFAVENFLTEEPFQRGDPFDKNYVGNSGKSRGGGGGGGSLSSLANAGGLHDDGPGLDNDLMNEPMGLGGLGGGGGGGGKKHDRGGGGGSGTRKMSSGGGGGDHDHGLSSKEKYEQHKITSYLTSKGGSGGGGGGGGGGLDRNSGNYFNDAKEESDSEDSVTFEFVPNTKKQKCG
T1 sequence (P08546 whole entry): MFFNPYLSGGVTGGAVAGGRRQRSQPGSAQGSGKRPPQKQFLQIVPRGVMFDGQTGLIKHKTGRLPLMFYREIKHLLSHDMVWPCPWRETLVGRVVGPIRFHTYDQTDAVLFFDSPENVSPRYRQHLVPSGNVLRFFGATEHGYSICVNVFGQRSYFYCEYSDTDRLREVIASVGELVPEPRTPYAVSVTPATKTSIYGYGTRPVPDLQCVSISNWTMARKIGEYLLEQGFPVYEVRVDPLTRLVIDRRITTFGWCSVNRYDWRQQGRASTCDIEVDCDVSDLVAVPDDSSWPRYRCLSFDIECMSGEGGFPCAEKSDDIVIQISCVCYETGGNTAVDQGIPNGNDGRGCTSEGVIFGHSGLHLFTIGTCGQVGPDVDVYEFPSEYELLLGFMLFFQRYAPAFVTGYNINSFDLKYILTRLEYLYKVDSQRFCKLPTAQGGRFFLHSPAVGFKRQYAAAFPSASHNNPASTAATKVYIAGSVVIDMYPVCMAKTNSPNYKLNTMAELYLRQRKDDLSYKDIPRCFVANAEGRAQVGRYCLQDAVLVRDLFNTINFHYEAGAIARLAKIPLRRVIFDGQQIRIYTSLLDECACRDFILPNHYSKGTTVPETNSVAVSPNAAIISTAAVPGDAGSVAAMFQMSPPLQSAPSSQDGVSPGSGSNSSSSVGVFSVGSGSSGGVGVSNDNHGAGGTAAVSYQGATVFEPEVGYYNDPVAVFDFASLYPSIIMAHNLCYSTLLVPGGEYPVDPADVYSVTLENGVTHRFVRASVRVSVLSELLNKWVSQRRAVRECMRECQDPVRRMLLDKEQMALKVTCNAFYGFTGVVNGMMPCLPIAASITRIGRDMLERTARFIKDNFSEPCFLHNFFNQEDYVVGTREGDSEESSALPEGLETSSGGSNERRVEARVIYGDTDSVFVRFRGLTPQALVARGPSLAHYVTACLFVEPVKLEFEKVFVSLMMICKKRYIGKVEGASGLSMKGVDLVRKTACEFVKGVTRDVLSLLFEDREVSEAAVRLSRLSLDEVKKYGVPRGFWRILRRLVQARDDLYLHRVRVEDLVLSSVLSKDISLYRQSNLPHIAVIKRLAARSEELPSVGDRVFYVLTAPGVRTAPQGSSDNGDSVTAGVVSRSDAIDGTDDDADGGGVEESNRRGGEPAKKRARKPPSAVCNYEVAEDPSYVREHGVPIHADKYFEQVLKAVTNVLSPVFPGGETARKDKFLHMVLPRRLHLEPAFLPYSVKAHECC

SMILES | EC50 (Measles Virus [1]) [µM] | EC50 [2] [µM] | EC50 [3] [µM] | EC50 (Measles Virus [4]) [µM] | EC50 [5] [µM] | EC50 [6] [µM] | IC50 ([7]; run with Influenza A (H1N1)) [µM] | IC50 ([7]; run with Influenza A (H3N2)) [µM] | IC50 ([7]; run with Influenza B) [µM] | IC50 [8] [µM] | IC50 [9, 23] [µM] | IC50 ([10]; run with Influenza A (H1N1)) [µM] | IC50 ([10]; run with Influenza A (H3N2)) [µM] | IC50 ([10]; run with Influenza B) [µM] | IC50 [11] [µM] | IC50 [12, 24] [µM] | IC50 ([12]; MA104) [µM] | other results
Cc1oncc1C(=O)Nc1cccc(C(F)(F)F)c1 [Compound 99-127, N-(3-trifluoromethylphenyl)-5-methylisoxazol-4-carboxamide] | > 100 | > 100 | > 100 | > 100 | > 100 | > 100 | > 200 | 63 | > 200 | 60 | 30 | 66 | 46 | 60 | 30 | 15 | 20 | 
Nc1ccn(C[C@@H](CO)OCP(=O)(O)O)c(=O)n1 [Cidofovir] |  |  |  |  |  |  |  |  |  |  |  |  |  |  |  |  |  | Neutropenia, share of recipients [13]: approximately 10%
O=C([O-])P(=O)(O)O.[Na+] [PFA, sodium phosphonoformate] |  |  |  |  |  |  |  |  |  |  |  |  |  |  |  |  |  | expression of viral proteins pp65, IE1, gB (CMV strain VHL/E; 200 µM A771726 or 1 mM PFA, 24, 48, 96 hours pi): unable to express gB; pp65 and IE1 expression (CMV strain VHL/E; 1 mM PFA): unimpeded; quantities of viral DNA synthesized (CMV DNA): no detectable CMV DNA; viral DNA polymerase activity (CMV DNA polymerase): complete inhibition; toxicities (renal dysfunction, hypomagnesemia, hypokalemia, hypocalcemia, seizures, fever, rash), each, share of recipients [13]: more than 5%
C=CC[C@@H]1/C=C(\C)C[C@H](C)C[C@H](OC)[C@H]2O[C@@](O)(C(=O)C(=O)N3CCCC[C@H]3C(=O)O[C@H](/C(C)=C/[C@@H]3CC[C@@H](O)[C@H](OC)C3)[C@H](C)[C@@H](O)CC1=O)[C@H](C)C[C@@H]2OC [FK 506, tacrolimus] |  |  |  |  |  |  |  |  |  |  |  |  |  |  |  |  |  | production of infectious virus (CMV production) [14]: no significant inhibition
Cc1nocc1C(=O)Nc1ccc(C(F)(F)F)cc1 [Compound 99-126, N-(4-trifluoromethylphenyl)-3-methylisoxazol-4-carboxamide] | 10 | > 100 | > 100 | 14 | 20 | > 100 | 63 | 72 | 72 | 60 | 40 | 48 | 30 | 46 | 25 | 20 | 30 | EC50 (Adenovirus Type 1 [15]): > 100 µM; EC50 (Rhinovirus Type 5 [16]): 100 µM; EC50 (Adenovirus Type 1 [17]): > 100 µM; EC50 (Rhinovirus Type 5 [18]): > 100 µM; IC50 [19]: 60 µM; IC50 ([9]; run with Parainfluenza Type 3 Virus): 11 µM; IC50 (uninfected cells [20]): 100 µM; IC50 (uninfected cells [21]): > 100 µM
Cc1oncc1C(=O)Nc1ccc(C(F)(F)F)cc1 [leflunomide, N-(4-trifluoromethylphenyl)-5-methylisoxazol-4-carboxamide] |  |  |  |  |  |  |  |  |  |  |  |  |  |  |  |  |  | viral load in salivary gland, lung and spleen [22]: significantly reduced viral load; hepatitis C viral load in peripheral blood (hepatitis C; after six weeks of leflunomide (300 mg daily two days, then 50 mg daily), 3,120,000 copies before): 1,480,000 copies; drop in hepatitis C viral load (hepatitis C; one patient, six weeks of leflunomide therapy): 50%
